Experimental data published in PMC4402707 (Neurotherapeutics : the journal of the American Society for …, 2009).
Read-outs that look alike come from different tables or passages of the source. Where a SMILES comes first, the peptide text is derived from it. [ ]: non-standard residue; d: D form. The star is where a group is joined. Fmoc = O=C(OCC1c2ccccc2-c2ccccc21)*; Cha = N[C@@H](CC1CCCCC1)C(=O)O; AMC = Cc1cc(=O)oc2cc(N*)ccc12

Assays:
[1] = tested on: corneal kindled mouse (fully expressed secondarily generalized seizure); settings: i.p.; ref Rowley et al., manuscript in preparation; cited from earlier work
[2] = tested on: CF-1 mice (seizures induced by 6 Hz corneal stimulation); settings: cited from earlier work; for ED50, 6 Hz model, 44 mA (95% confidence interval) / ED50, 6 Hz model, 32 mA (95% confidence interval): ref Barton et al., 2001[19]
[3] = tested on: non-galanin receptors (5-HT-1A and 1B, D2 dopamine, ghrelin, melanocortin, NPY, μ-opioid receptors); settings: at 10 μM, NPY (galnon only), μ-opioid (galmic only); cited from earlier work
[4] = tested on: galanin receptors GalR1 and GalR2; settings: cited from earlier work; for Fold difference in affinity for GalR1 and GalR2: receptor subtype specificity
[5] = tested on: CF-1 mice (seizures induced by 6 Hz corneal stimulation); experiment: 6 Hz psychomotor seizure test; assay type: in vivo, mouse; settings: 4 mg/kg i.p.

In the case of NC(=O)N1c2ccccc2C=Cc2ccccc21 [CBZ, carbamazepine], the “Active dose in corneal kindled mouse model” value [1] is listed as 33 mg/kg.
For CCC1(C)CC(=O)NC1=O (centres unmarked) [Ethosuximide, ethosuximide], the “ED50, 6 Hz model, 44 mA (95% confidence interval)” value ([2]; i.p.) is given as > 600 mg/kg.
In the case of COC[C@@H](NC(C)=O)C(=O)NCc1ccccc1 [Lacosamide], the ED50 ([2]; read-out: ED50, 6 Hz model, 32 mA (95% confidence interval), i.p., 32 mA, ref Stöhr et al., 2007[44]) is listed as 9.9 mg/kg.
In the case of Nc1nnc(-c2cccc(Cl)c2Cl)c(N)n1 [Lamotrigine, lamotrigine], the “ED50, 6 Hz model, 32 mA (95% confidence interval)” value ([2]; i.p., 32 mA) is listed as > 60 mg/kg and the “ED50, 6 Hz model, 44 mA (95% confidence interval)” value ([2]; i.p.) is listed as > 60 mg/kg.
For O=C1NC(=O)C(c2ccccc2)(c2ccccc2)N1 [Phenytoin, phenytoin], the “ED50, 6 Hz model, 32 mA (95% confidence interval)” value ([2]; i.p., 32 mA) is given as > 60 mg/kg and the “ED50, 6 Hz model, 44 mA (95% confidence interval)” value ([2]; i.p.) is given as > 60 mg/kg.
In the case of COC(=O)[C@H](CCCCN)NC(=O)[C@]1(C)NC(=O)c2nc(oc2C)[C@](C)(C(=O)NC2c3ccccc3-c3ccccc32)NC(=O)c2nc(oc2C)[C@](C)(C(=O)NCC2CCCCC2)NC(=O)c2nc1oc2C [galmic], the “Interaction with non-galanin receptors” value [3] is given as “interact with a variety of non-galanin receptors”, the “Fold lower affinity for galanin receptors relative to the native peptide” value [4] is given as 10,000-100,000 fold and the “Fold difference in affinity for GalR1 and GalR2” value [4] is given as 2-3 fold.
For Cc1cc(=O)oc2cc(NC(=O)[C@H](CCCCN)NC(=O)[C@H](CC3CCCCC3)NC(=O)OCC3c4ccccc4-c4ccccc43)ccc12 [galnon] (Fmoc-[Cha]-Lys-{AMC}), the “Interaction with non-galanin receptors” value [3] is given as “interact with a variety of non-galanin receptors”, the “Fold lower affinity for galanin receptors relative to the native peptide” value [4] is given as 10,000-100,000 fold and the “Fold difference in affinity for GalR1 and GalR2” value [4] is given as 2-3 fold.
In the case of Ac-YLLGPKK(Lys-P)K [NAX 5055 truncated], the “Activity in 6 Hz 32 mA model (in words)” value ([5]; 32 mA, tested across time) is reported as “inactive”, the “Mice protected from seizures / mice tested, 15′” value ([5]; 6 Hz 32 mA, CF-1 mice, 15 min, groups of four) is reported as 0/4 and the “Mice protected from seizures / mice tested, 30′” value ([5]; 6 Hz 32 mA, CF-1 mice, 30 min, groups of four) is reported as 0/4. The “Mice protected from seizures / mice tested, 60′” value ([5]; 6 Hz 32 mA, CF-1 mice, 60 min, groups of four) was 0/4, the “Mice protected from seizures / mice tested, 120′” value ([5]; 6 Hz 32 mA, CF-1 mice, 120 min, groups of four) was 0/4 and the “Mice protected from seizures / mice tested, 240′” value ([5]; 6 Hz 32 mA, CF-1 mice, 240 min, groups of four) was 0/4.
For GWTLNSAGYLLGPHAV-NH2 [Gal(1-16)], the “Activity in 6 Hz 32 mA model (in words)” value ([2]; 4 mg/kg i.p., 32 mA, ref Bulaj et al, 2008.[17]) is listed as “inactive”.
